Results on 25 molecules are retold here after US20160289186A1, “FLUOROMETHYL-SUBSTITUTED PYRROLE CA[…]” (Grunenthal GmbH, priority 2013, published 2016).

SMILES strings stand for the structures.

The test concerns the target T1, Human CaV2.2 channels (Homo sapiens, UniProt Q00975).
T1 construct: expressed in transfected cells; host or cells: HEK293
In words: Fluorescent (FLIPR) assay for CaV2.2 channels using potassium depolarization to induce channel opening. In kind it is cell-based. Particulars: 3 μM compound, 30 mM KCl assay buffer (inactivated channel state), HEK293 cells stably expressing human CaV2.2; for inhibition at 3 µM: read-out: Activity Category: %-Inhib (CaV2.2) @3 μM @30 mM KCl. The procedure, abridged: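 HEK293 cells stably co-expressing human CaV2.2 with α2δ and β subunits plus Kir2.3, Fluo-4 loaded; compounds preincubated 15 min at 25 °C in 1 mM or 30 mM KCl buffer (inactivated state), pH 7.4. Depolarized by KCl addition; baseline-normalized peak fluorescence (ex 480/em 535 nm) gave inhibition.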

T1 sequence (Q00975 whole entry): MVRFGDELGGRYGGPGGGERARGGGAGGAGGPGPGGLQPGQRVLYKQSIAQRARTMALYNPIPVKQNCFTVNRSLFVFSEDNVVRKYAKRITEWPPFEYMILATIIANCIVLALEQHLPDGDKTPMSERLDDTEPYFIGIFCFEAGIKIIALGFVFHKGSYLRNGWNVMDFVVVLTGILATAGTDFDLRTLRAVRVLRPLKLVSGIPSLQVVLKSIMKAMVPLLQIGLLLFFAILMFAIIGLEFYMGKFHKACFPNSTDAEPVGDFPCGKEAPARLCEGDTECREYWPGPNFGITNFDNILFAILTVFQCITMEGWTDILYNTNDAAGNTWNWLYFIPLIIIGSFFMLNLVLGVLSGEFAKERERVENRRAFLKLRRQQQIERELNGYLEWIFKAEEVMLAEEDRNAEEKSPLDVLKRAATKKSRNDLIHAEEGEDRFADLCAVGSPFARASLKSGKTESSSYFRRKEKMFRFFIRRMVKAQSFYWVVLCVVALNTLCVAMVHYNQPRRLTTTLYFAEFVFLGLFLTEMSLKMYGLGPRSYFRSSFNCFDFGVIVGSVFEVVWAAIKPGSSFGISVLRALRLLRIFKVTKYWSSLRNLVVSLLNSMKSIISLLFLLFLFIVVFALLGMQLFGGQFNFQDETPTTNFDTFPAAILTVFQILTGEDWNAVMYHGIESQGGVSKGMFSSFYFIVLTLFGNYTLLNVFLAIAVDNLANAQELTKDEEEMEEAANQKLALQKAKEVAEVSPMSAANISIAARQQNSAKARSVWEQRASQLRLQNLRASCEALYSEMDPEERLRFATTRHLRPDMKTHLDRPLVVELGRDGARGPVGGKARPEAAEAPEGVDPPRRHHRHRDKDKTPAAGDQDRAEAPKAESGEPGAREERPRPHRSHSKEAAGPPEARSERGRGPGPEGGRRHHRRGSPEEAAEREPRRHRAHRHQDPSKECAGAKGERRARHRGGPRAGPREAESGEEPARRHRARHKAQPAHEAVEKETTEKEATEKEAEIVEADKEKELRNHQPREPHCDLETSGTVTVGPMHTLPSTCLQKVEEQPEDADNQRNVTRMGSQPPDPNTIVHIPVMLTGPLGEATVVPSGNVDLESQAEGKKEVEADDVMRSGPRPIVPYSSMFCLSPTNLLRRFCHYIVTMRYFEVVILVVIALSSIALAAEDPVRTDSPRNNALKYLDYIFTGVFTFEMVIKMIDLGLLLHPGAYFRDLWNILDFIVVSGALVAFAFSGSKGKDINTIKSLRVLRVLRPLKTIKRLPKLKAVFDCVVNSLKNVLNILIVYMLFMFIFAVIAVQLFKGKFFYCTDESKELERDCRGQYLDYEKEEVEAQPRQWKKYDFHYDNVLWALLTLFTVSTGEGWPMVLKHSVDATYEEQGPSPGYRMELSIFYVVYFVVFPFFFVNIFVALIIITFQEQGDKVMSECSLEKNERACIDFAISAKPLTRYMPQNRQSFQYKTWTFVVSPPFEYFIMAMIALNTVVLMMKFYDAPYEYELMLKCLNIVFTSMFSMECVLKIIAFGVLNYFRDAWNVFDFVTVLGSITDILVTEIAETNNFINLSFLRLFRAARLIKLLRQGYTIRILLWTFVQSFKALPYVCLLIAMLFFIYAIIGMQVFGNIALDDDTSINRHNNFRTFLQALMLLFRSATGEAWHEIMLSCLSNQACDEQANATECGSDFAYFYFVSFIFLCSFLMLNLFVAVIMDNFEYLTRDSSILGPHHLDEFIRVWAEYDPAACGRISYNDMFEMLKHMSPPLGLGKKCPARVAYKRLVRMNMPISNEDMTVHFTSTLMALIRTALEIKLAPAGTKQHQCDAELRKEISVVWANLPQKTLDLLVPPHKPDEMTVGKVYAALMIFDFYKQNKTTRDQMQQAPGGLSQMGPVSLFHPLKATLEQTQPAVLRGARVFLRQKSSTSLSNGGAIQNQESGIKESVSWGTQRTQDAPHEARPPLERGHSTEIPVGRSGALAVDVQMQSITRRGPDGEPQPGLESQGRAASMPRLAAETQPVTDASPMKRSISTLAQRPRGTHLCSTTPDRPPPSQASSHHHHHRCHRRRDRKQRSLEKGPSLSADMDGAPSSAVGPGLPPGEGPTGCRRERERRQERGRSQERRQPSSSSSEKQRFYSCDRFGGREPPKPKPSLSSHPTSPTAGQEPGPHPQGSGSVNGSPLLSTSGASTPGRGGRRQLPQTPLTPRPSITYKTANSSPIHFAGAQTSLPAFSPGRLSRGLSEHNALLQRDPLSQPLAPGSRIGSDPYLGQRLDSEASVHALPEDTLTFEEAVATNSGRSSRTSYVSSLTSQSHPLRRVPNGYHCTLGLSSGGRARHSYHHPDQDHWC
T1 sequence (P54284 whole entry, further chain): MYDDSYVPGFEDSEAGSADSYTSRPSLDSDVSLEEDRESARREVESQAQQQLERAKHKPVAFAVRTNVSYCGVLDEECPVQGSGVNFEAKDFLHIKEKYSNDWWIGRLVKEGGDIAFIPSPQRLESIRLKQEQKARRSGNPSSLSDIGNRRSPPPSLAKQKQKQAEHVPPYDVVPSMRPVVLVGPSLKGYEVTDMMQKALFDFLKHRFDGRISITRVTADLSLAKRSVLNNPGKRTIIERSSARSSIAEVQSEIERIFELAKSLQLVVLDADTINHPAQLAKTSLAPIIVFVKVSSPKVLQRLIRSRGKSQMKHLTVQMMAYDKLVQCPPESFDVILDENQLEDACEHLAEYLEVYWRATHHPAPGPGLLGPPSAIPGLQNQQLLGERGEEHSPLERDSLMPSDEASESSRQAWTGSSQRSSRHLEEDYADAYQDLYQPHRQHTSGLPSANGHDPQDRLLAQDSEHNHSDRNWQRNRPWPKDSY
T1 sequence (P54289 25-1103, further chain): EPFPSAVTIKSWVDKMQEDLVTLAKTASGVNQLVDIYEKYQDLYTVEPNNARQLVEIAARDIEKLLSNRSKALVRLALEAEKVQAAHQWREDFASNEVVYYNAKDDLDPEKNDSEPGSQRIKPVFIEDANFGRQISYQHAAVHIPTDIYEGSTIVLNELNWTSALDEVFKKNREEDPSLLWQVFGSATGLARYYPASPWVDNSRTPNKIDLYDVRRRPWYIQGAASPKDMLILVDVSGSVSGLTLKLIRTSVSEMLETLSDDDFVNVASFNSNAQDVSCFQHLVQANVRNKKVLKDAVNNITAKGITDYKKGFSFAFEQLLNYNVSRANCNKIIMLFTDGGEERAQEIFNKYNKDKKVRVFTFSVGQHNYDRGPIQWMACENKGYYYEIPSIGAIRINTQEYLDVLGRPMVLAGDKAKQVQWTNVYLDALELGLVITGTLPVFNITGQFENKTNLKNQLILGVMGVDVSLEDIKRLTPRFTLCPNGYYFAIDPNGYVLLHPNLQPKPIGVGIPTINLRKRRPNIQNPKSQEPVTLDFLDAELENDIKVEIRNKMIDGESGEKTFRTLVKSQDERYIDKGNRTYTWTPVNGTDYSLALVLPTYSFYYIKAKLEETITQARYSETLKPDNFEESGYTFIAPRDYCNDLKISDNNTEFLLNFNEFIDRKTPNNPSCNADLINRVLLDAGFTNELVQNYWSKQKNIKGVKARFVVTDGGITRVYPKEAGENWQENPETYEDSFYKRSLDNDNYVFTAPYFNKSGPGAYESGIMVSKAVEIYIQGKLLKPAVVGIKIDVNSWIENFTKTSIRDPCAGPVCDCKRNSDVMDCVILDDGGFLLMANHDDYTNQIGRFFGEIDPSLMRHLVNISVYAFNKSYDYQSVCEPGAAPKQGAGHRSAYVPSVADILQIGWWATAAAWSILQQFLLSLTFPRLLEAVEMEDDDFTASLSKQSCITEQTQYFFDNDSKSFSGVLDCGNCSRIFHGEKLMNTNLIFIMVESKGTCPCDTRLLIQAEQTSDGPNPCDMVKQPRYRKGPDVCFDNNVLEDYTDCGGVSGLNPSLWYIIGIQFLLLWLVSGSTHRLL

With `CC(C)Cn1c(C(F)(F)F)cc(-c2ccc(F)cc2)c1C(=O)N(C)Cc1cnc(N(C)C)nc1` [Example 060], the “Activity Category: %-Inhib (CaV2.2) @3 μM @30 mM KCl” value is reported as “A (%-Inhibition >95%)”.
For `CC(C)Cn1c(C(F)(F)F)cc(-c2ccc(F)cc2)c1C(=O)N1CCOC(C)(C)C1` [Example 045, (2,2-Dimethyl-morpholin-4-yl)-[3-(4-fluorophenyl)-1-(2-methyl-propyl)-5-(trifluoromethyl)-1H-pyrrol-2-yl]-methanone], the inhibition at 3 µM is 75 to 95%.
For `Cc1c(-c2ccc(Cl)cc2F)c(C(=O)N2CCOC(C)(C)C2)n(C2CC2)c1C(F)(F)F` [Example 033, [3-(4-Chloro-2-fluoro-phenyl)-1-cyclopropyl-4-methyl-5-(trifluoromethyl)-1H-pyrrol-2-yl]-(2,2-dimethyl-morpholin-4-yl)-methanone], the inhibition at 3 µM was 75 to 95%.
On the same count and under the same terms, next, `Cc1c(-c2ccc(Cl)cc2)c(C(=O)N2CCS(=O)(=O)C(C)(C)C2)n(C2CC2)c1C(F)(F)F` [Example 044, [3-(4-Chlorophenyl)-1-cyclopropyl-4-methyl-5-(trifluoromethyl)-1H-pyrrol-2-yl]-(2,2-dimethyl-1,1-dioxo-[1,4]thiazinan-4-yl)-methanone]: 75 to 95%.
Same read-out and setting: in the case of `Cc1c(-c2ccc(Cl)cc2)c(C(=O)N2CCOCC2)n(CCN2CC(F)(F)C2)c1C(F)(F)F` [Example 098, [3-(4-Chlorophenyl)-1-[2-(3,3-difluoro-azetidin-1-yl)-ethyl]-4-methyl-5-(trifluoromethyl)-1H-pyrrol-2-yl]-morpholin-4-yl-methanone] it was > 95%.
Same read-out and setting: next, `Cc1c(-c2ccc(Cl)cc2)c(C(=O)N(C)CC2CCOC2)n(C2CC2)c1C(F)(F)F` (stereo not shown) [Example 022, 3-(4-Chlorophenyl)-1-cyclopropyl-N,4-dimethyl-N-(tetrahydro-furan-3-yl-methyl)-5-(trifluoromethyl)-1H-pyrrole-2-carboxylic acid amide]: > 95%.
Consider `COc1ccc(CN(C)C(=O)c2c(-c3ccc(Cl)cc3)cc(C(F)(F)F)n2C2CC2)cc1` [Example 011, 3-(4-Chlorophenyl)-1-cyclopropyl-N-[(4-methoxyphenyl)-methyl]-N-methyl-5-(trifluoromethyl)-1H-pyrrole-2-carboxylic acid amide], for which the inhibition at 3 µM lay in the range of 75 to 95%.
For `Cc1cc(CN(C)C(=O)c2c(-c3ccc(F)cc3)cc(C(F)(F)F)n2CC2CCCO2)no1` (stereo not shown) [Example 075, 3-(4-Fluorophenyl)-N-methyl-N-[(5-methyl-isoxazol-3-yl)-methyl]-1-(tetrahydro-furan-2-yl-methyl)-5-(trifluoromethyl)-1H-pyrrole-2-carboxylic acid amide], the inhibition at 3 µM lay in the range of 75 to 95%.
As to `Cc1c(-c2ccc(Cl)cc2)c(C(=O)N(C)C2CCOCC2)n(C2CC2)c1C(F)(F)F` [Example 014, 3-(4-Chlorophenyl)-1-cyclopropyl-N,4-dimethyl-N-tetrahydro-pyran-4-yl-5-(trifluoromethyl)-1H-pyrrole-2-carboxylic acid amide], the inhibition at 3 µM was in the range of 75 to 95%.
Regarding `CC1(C)CN(C(=O)c2c(-c3ccc(Cl)cc3)cc(C(F)(F)F)n2C2CC2)CCO1` [Example 034, [3-(4-Chlorophenyl)-1-cyclopropyl-5-(trifluoromethyl)-1H-pyrrol-2-yl]-(2,2-dimethyl-morpholin-4-yl)-methanone], the inhibition at 3 µM is 75 to 95%.
On to `Cc1c(-c2ccc(Cl)cc2)c(C(=O)N(C)CC(C)(C)C#N)n(CC(C)C)c1C(F)(F)F` [Example 067, 3-(4-Chlorophenyl)-N-(2-cyano-2-methyl-propyl)-N,4-dimethyl-1-(2-methyl-propyl)-5-(trifluoromethyl)-1H-pyrrole-2-carboxylic acid amide], for which the inhibition at 3 µM was 40 to 75%.
Consider `Cc1c(-c2ccc(Cl)cc2)c(C(=O)N2CCOC(C)(C)C2)n(C(C)C)c1C(F)(F)F` [Example 006, [3-(4-Chlorophenyl)-1-isopropyl-4-methyl-5-(trifluoromethyl)-1H-pyrrol-2-yl]-(2,2-dimethyl-morpholin-4-yl)-methanone], for which the inhibition at 3 µM lay within 75 to 95%.
Still for that read-out and setting: in the case of `CN(CC1CCOC1)C(=O)c1c(-c2ccc(Cl)cc2)cc(C(F)(F)F)n1C1CC1` (stereo not shown) [Example 023, 3-(4-Chlorophenyl)-1-cyclopropyl-N-methyl-N-(tetrahydro-furan-3-yl-methyl)-5-(trifluoromethyl)-1H-pyrrole-2-carboxylic acid amide] it was 75 to 95%; in that of `Cc1c(-c2ccc(Cl)cc2)c(C(=O)N2CCOC(C)(C)C2)n(C2CC2)c1C(F)(F)F` [Example 032, [3-(4-Chlorophenyl)-1-cyclopropyl-4-methyl-5-(trifluoromethyl)-1H-pyrrol-2-yl]-(2,2-dimethyl-morpholin-4-yl)-methanone], > 95%; in that of `Cc1c(-c2ncc(Cl)cn2)c(C(=O)N(C)CC(C)(C)C#N)n(C(C)C)c1C(F)(F)F` [Example 126, 3-(5-Chloro-pyrimidin-2-yl)-N-(2-cyano-2-methyl-propyl)-1-isopropyl-N,4-dimethyl-5-(trifluoromethyl)-1H-pyrrole-2-carboxylic acid amide], 40 to 75%.
For the molecule `Cc1cnc(CN(C)C(=O)c2c(-c3ccc(F)cc3)cc(C(F)(F)F)n2CC(C)C)cn1` [Example 049, 3-(4-Fluorophenyl)-N-methyl-1-(2-methyl-propyl)-N-[(5-methyl-pyrazin-2-yl)-methyl]-5-(trifluoromethyl)-1H-pyrrole-2-carboxylic acid amide], the inhibition at 3 µM is > 95%.
On the same count and under the same terms, in the case of `Cc1cc(CN(C)C(=O)c2c(-c3ccc(Cl)cc3)c(C)c(C(F)(F)F)n2CC(C)C)no1` [Example 057, 3-(4-Chlorophenyl)-N,4-dimethyl-N-[(5-methyl-isoxazol-3-yl)-methyl]-1-(2-methyl-propyl)-5-(trifluoromethyl)-1H-pyrrole-2-carboxylic acid amide] it was > 95%; in that of `Cc1c(-c2ccc(Cl)cc2)c(C(=O)N(C)C(CO)CC(C)C)n(C(C)C)c1C(F)(F)F` (stereo not shown) [Example 132, 3-(4-Chlorophenyl)-N-[1-(hydroxymethyl)-3-methyl-butyl]-1-isopropyl-N,4-dimethyl-5-(trifluoromethyl)-1H-pyrrole-2-carboxylic acid amide], 40 to 75%.
Still for that read-out and setting: next, `O=C1CN(C(=O)c2c(-c3ccc(F)cc3)cc(C(F)(F)F)n2CC2CCCO2)CCN1` (stereo not shown) [Example 079, 4-[3-(4-Fluorophenyl)-1-(tetrahydro-furan-2-yl-methyl)-5-(trifluoromethyl)-1H-pyrrole-2-carbonyl]-piperazin-2-one]: 40 to 75%; `Cc1noc(C2CCN(C(=O)c3c(-c4ccc(Cl)cc4)c(C)c(C(F)(F)F)n3C3CC3)CC2)n1` [Example 027, [3-(4-Chlorophenyl)-1-cyclopropyl-4-methyl-5-(trifluoromethyl)-1H-pyrrol-2-yl]-[4-(3-methyl-[1,2,4]oxadiazol-5-yl)-piperidin-1-yl]-methanone]: 75 to 95%; `Cc1c(-c2ccc(Cl)cn2)c(C(=O)N2CCOC(C)(C)C2)n(C(C)C)c1C(F)(F)F` [Example 112, [3-(5-Chloro-pyridin-2-yl)-1-isopropyl-4-methyl-5-(trifluoromethyl)-1H-pyrrol-2-yl]-(2,2-dimethyl-morpholin-4-yl)-methanone]: 40 to 75%.
Still for that read-out and setting: next, `Cc1c(-c2ccc(Cl)cn2)c(C(=O)N(C)C(C)C)n(C(C)C)c1C(F)(F)F` [Example 120, 3-(5-Chloro-pyridin-2-yl)-N,1-diisopropyl-N,4-dimethyl-5-(trifluoromethyl)-1H-pyrrole-2-carboxylic acid amide]: 75 to 95%; `CN(CCS(C)(=O)=O)C(=O)c1c(-c2ccc(F)cc2)cc(C(F)(F)F)n1CC1CCCO1` (stereo not shown) [Example 078, 3-(4-Fluorophenyl)-N-methyl-N-(2-methylsulfonyl-ethyl)-1-(tetrahydro-furan-2-yl-methyl)-5-(trifluoromethyl)-1H-pyrrole-2-carboxylic acid amide]: 40 to 75%; `Cc1c(-c2ccc(Cl)cc2)c(C(=O)N(C)Cc2ccncn2)n(CC(C)C)c1C(F)(F)F` [Example 048, 3-(4-Chlorophenyl)-N,4-dimethyl-1-(2-methyl-propyl)-N-(pyrimidin-4-yl-methyl)-5-(trifluoromethyl)-1H-pyrrole-2-carboxylic acid amide]: > 95%.
Turning to `CC(C)Cn1c(C(F)(F)F)cc(-c2ccc(F)cc2)c1C(=O)N1CCOCC1` [Example 065, [3-(4-Fluorophenyl)-1-(2-methyl-propyl)-5-(trifluoromethyl)-1H-pyrrol-2-yl]-morpholin-4-yl-methanone], the inhibition at 3 µM lay in the range of 75 to 95%.
